Reference: ChEMBL document CHEMBL3045802, “Synthesis and in vitro antitumor activity of new quinoline, pyrimido[4,5-b]quinoline, [1,2,3]triazino[4,5-b]quinoline, and [1,2,4]triazolo[2,3:3,4]pyrimido[6,5-b]quinoline analogs” (2013)

Key:
Type in all cases: functional
[1] = test system: SK-MEL-28; experiment: Cytotoxicity against Homo sapiens (human) SK-MEL-28 cells assessed as growth inhibition at 10 uM after 48 hr by coulter counter analysis; details: SK-MEL-28, 48 h, read-out: GI
[2] = test system: SK-MEL-2; experiment: Cytotoxicity against Homo sapiens (human) SK-MEL-2 cells assessed as growth inhibition at 10 uM after 48 hr by coulter counter analysis; details: SK-MEL-2, 48 h, read-out: GI
[3] = test system: MDA-MB-435; experiment: Cytotoxicity against Homo sapiens (human) MDA-MB-435 cells assessed as growth inhibition at 10 uM after 48 hr by coulter counter analysis; details: MDA-MB-435, 48 h, read-out: GI
[4] = test system: Malme-3M; experiment: Cytotoxicity against Homo sapiens (human) MALME-3M cells assessed as growth inhibition at 10 uM after 48 hr by coulter counter analysis; details: read-out: GI
[5] = test system: SNB-19; experiment: Cytotoxicity against Homo sapiens (human) SNB19 cells assessed as growth inhibition at 10 uM after 48 hr by coulter counter analysis; details: SNB-19, 48 h, read-out: GI
[6] = test system: SF-539; experiment: Cytotoxicity against Homo sapiens (human) SF539 cells assessed as growth inhibition at 10 uM after 48 hr by coulter counter analysis; details: SF-539, 48 h, read-out: GI
[7] = test system: OVCAR-3; experiment: Cytotoxicity against Homo sapiens (human) OVCAR3 cells assessed as growth inhibition at 10 uM after 48 hr by coulter counter analysis; details: OVCAR-3, 48 h, read-out: GI
[8] = test system: UACC-257; experiment: Cytotoxicity against Homo sapiens (human) UACC257 cells assessed as growth inhibition at 10 uM after 48 hr by coulter counter analysis; details: UACC-257, 48 h, read-out: GI
[9] = test system: SK-MEL-5; experiment: Cytotoxicity against Homo sapiens (human) SK-MEL-5 cells assessed as growth inhibition at 10 uM after 48 hr by coulter counter analysis; details: SK-MEL-5, 48 h, read-out: GI
[10] = test system: T47D; experiment: Cytotoxicity against Homo sapiens (human) T47D cells assessed as growth inhibition at 10 uM after 48 hr by coulter counter analysis; details: read-out: GI
[11] = test system: BT-549; experiment: Cytotoxicity against Homo sapiens (human) BT549 cells assessed as growth inhibition at 10 uM after 48 hr by coulter counter analysis; details: BT-549, 48 h, read-out: GI
[12] = test system: DU-145; experiment: Cytotoxicity against Homo sapiens (human) DU145 cells assessed as growth inhibition at 10 uM after 48 hr by coulter counter analysis; details: DU-145, 48 h, read-out: GI
[13] = test system: SN12C; experiment: Cytotoxicity against Homo sapiens (human) SN12C cells assessed as growth inhibition at 10 uM after 48 hr by coulter counter analysis; details: read-out: GI
[14] = test system: A498; experiment: Cytotoxicity against Homo sapiens (human) A498 cells assessed as growth inhibition at 10 uM after 48 hr by coulter counter analysis; details: A498, 48 h, read-out: GI
[15] = Cytotoxicity against Homo sapiens (human) NCI-ADR-RES cells assessed as growth inhibition at 10 uM after 48 hr by coulter counter analysis; details: read-out: GI
[16] = test system: OVCAR-5; experiment: Cytotoxicity against Homo sapiens (human) OVCAR5 cells assessed as growth inhibition at 10 uM after 48 hr by coulter counter analysis; details: OVCAR-5, 48 h, read-out: GI
[17] = test system: HL-60(TB); experiment: Cytotoxicity against Homo sapiens (human) HL-60(TB) cells assessed as growth inhibition at 10 uM after 48 hr by coulter counter analysis; details: HL-60, 48 h, read-out: GI
[18] = test system: CCRF-CEM; experiment: Cytotoxicity against Homo sapiens (human) CCRF-CEM cells assessed as growth inhibition at 10 uM after 48 hr by coulter counter analysis; details: read-out: GI
[19] = test system: SW-620; experiment: Cytotoxicity against Homo sapiens (human) SW620 cells assessed as growth inhibition at 10 uM after 48 hr by coulter counter analysis; details: SW-620, 48 h, read-out: GI
[20] = test system: HT-29; experiment: Cytotoxicity against Homo sapiens (human) HT-29 cells assessed as growth inhibition at 10 uM after 48 hr by coulter counter analysis; details: HT-29, 48 h, read-out: GI
[21] = test system: HCT-116; experiment: Cytotoxicity against Homo sapiens (human) HCT116 cells assessed as growth inhibition at 10 uM after 48 hr by coulter counter analysis; details: HCT-116, 48 h, read-out: GI
[22] = test system: HCC 2998; experiment: Cytotoxicity against Homo sapiens (human) HCC2998 cells assessed as growth inhibition at 10 uM after 48 hr by coulter counter analysis; details: HCC 2998, 48 h, read-out: GI
[23] = test system: COLO 205; experiment: Cytotoxicity against Homo sapiens (human) COLO205 cells assessed as growth inhibition at 10 uM after 48 hr by coulter counter analysis; details: COLO 205, 48 h, read-out: GI
[24] = test system: NCI-H522; experiment: Cytotoxicity against Homo sapiens (human) NCI-H522 cells assessed as growth inhibition at 10 uM after 48 hr by coulter counter analysis; details: NCI-H522, 48 h, read-out: GI
[25] = test system: NCI-H460; experiment: Cytotoxicity against Homo sapiens (human) NCI-H460 cells assessed as growth inhibition at 10 uM after 48 hr by coulter counter analysis; details: NCI-H460, 48 h, read-out: GI
[26] = test system: NCI-H23; experiment: Cytotoxicity against Homo sapiens (human) NCI-H23 cells assessed as growth inhibition at 10 uM after 48 hr by coulter counter analysis; details: NCI-H23, 48 h, read-out: GI
[27] = test system: NCI-H226; experiment: Cytotoxicity against Homo sapiens (human) NCI-H226 cells assessed as growth inhibition at 10 uM after 48 hr by coulter counter analysis; details: NCI-H226, 48 h, read-out: GI
[28] = test system: HOP-92; experiment: Cytotoxicity against Homo sapiens (human) HOP92 cells assessed as growth inhibition at 10 uM after 48 hr by coulter counter analysis; details: HOP-92, 48 h, read-out: GI
[29] = test system: EKVX; experiment: Cytotoxicity against Homo sapiens (human) EKVX cells assessed as growth inhibition at 10 uM after 48 hr by coulter counter analysis; details: read-out: GI
[30] = test system: HOP-62; experiment: Cytotoxicity against Homo sapiens (human) HOP62 cells assessed as growth inhibition at 10 uM after 48 hr by coulter counter analysis; details: HOP-62, 48 h, read-out: GI
[31] = test system: A549; experiment: Cytotoxicity against Homo sapiens (human) A549 cells assessed as growth inhibition at 10 uM after 48 hr by coulter counter analysis; details: A549, 48 h, read-out: GI
[32] = test system: SR; experiment: Cytotoxicity against Homo sapiens (human) SR cells assessed as growth inhibition at 10 uM after 48 hr by coulter counter analysis; details: read-out: GI
[33] = test system: RPMI-8226; experiment: Cytotoxicity against Homo sapiens (human) RPMI8226 cells assessed as growth inhibition at 10 uM after 48 hr by coulter counter analysis; details: RPMI-8226, 48 h, read-out: GI
[34] = test system: K562; experiment: Cytotoxicity against Homo sapiens (human) K562 cells assessed as growth inhibition at 10 uM after 48 hr by coulter counter analysis; details: K562, 48 h, read-out: GI

Compound	inhibition of growth at 10 µM [1]	inhibition of growth at 10 µM [2]	inhibition of growth at 10 µM [3]	inhibition of growth at 10 µM [4]	inhibition of growth at 10 µM [5]	inhibition of growth at 10 µM [6]	inhibition of growth at 10 µM [7]	inhibition of growth at 10 µM [8]	inhibition of growth at 10 µM [9]	inhibition of growth at 10 µM [10]	inhibition of growth at 10 µM [11]	inhibition of growth at 10 µM [12]	inhibition of growth at 10 µM [13]	inhibition of growth at 10 µM [14]	inhibition of growth at 10 µM [15]	inhibition of growth at 10 µM [16]	inhibition of growth at 10 µM [17]	inhibition of growth at 10 µM [18]	inhibition of growth at 10 µM [19]	inhibition of growth at 10 µM [20]	also measured
COc1ccc(-c2nc3c(c(=O)[nH]2)C(c2ccc(Cl)cc2)C2=C(CCCC2)N3)cc1OC (stereo not drawn)	< 10%	< 10%	< 10%	< 10%	< 10%	< 10%	< 10%	< 10%	13%	< 10%	< 10%	< 10%	12%	< 10%	< 10%	< 10%	< 10%	< 10%	< 10%	< 10%	inhibition of growth at 10 µM [21]: < 10%; inhibition of growth at 10 µM [22]: < 10%; inhibition of growth at 10 µM [23]: < 10%; inhibition of growth at 10 µM [24]: 10.1%; inhibition of growth at 10 µM [25]: < 10%; inhibition of growth at 10 µM [26]: < 10%; inhibition of growth at 10 µM [27]: 11%; inhibition of growth at 10 µM [28]: < 10%; inhibition of growth at 10 µM [29]: < 10%; inhibition of growth at 10 µM [30]: 10.2%; inhibition of growth at 10 µM [31]: < 10%; inhibition of growth at 10 µM [32]: < 10%; inhibition of growth at 10 µM [33]: < 10%; inhibition of growth at 10 µM [34]: < 10%
COc1ccc(C2C3=C(CCCC3)Nc3nc(-c4ccccc4)[nH]c(=O)c32)cc1OC (stereo not drawn)	< 10%	< 10%	< 10%	< 10%	10.7%	< 10%	< 10%	< 10%	10.9%	21.1%	< 10%	< 10%	10.8%	13.2%	< 10%	12.6%	< 10%	< 10%	< 10%	< 10%	inhibition of growth at 10 µM [21]: < 10%; inhibition of growth at 10 µM [22]: < 10%; inhibition of growth at 10 µM [23]: 15.9%; inhibition of growth at 10 µM [24]: 14.5%; inhibition of growth at 10 µM [25]: < 10%; inhibition of growth at 10 µM [26]: < 10%; inhibition of growth at 10 µM [27]: 15.9%; inhibition of growth at 10 µM [28]: 13.3%; inhibition of growth at 10 µM [29]: < 10%; inhibition of growth at 10 µM [30]: 15.7%; inhibition of growth at 10 µM [31]: < 10%; inhibition of growth at 10 µM [32]: < 10%; inhibition of growth at 10 µM [33]: < 10%; inhibition of growth at 10 µM [34]: < 10%
